The record followed here is ChEMBL document CHEMBL5465560, “Selectivity Literature for EUbOPEN Chemogenomic Library” (2024).

The target in experiment [1] is Cyclin-dependent kinase 14/Cyclin-Y (Homo sapiens) (UniProt O94921+Q8ND76). The experiment in a line: Selectivity interaction (LanthaScreen Eu Kinase Binding Assay) EUB0001632a CDK14. As to conditions: at 10 µM. It counts as protein-complex assay. Background: In TR-FRET formats the signal depends on donor and acceptor labels being close together.
Experiment [2] addresses High affinity nerve growth factor receptor (Homo sapiens, UniProt P04629). Kind of experiment: Selectivity interaction (Ambit KINOMEscan and KiNATiv profiling in Jurkat cells) EUB0000090b NTRK1. Type of experiment: cell-based. The following applies: at 1 µM.
In experiment [3] the target is Interleukin-1 receptor-associated kinase 1 (Homo sapiens) (UniProt P51617). The experiment in a line: Selectivity interaction (KinomeScan (DiscoverX)) EUB0000666a IRAK1. As to conditions: at 10 µM.
Experiment [4] concerns the target Tyrosine-protein kinase JAK2 (Homo sapiens, UniProt O60674). The experiment in a line: Selectivity interaction (SelectScreen Kinase Profiling (Thermo Fisher Scientific)) EUB0001558a JAK2. The following applies: at 1 µM.
In experiment [5] the target is Serine/threonine-protein kinase 38 (Homo sapiens) (UniProt Q15208). The experiment in a line: Selectivity interaction (KinomeScan (DiscoverX)) EUB0000655a STK38. As to conditions: at 10 µM.
Experiment [6] has as its target Mitogen-activated protein kinase 10 (Homo sapiens, UniProt P53779). The experiment in a line: Selectivity interaction (Kinase panel (Invitrogen)) EUB0000639a MAPK10. As to conditions: at 200 nM.
Experiment [7] has as its target Tyrosine-protein kinase JAK1 (Homo sapiens, UniProt P23458). The experiment in a line: Selectivity interaction (Kinase panel (Invitrogen)) EUB0000639a JAK1. The following applies: at 200 nM.
The target of experiment [8] is Cyclin-dependent kinase 2 (Homo sapiens, UniProt P24941). Kind of experiment: Selectivity interaction (ActivX KiNativ screen (kinase selectivity in THP-1 cell lysates)) EUB0000639a CDK2. The following applies: lysate, at 0.04 µM. Type of experiment: subcellular.
The target of experiment [9] is Cyclin-dependent kinase 16 (Homo sapiens) (UniProt Q00536). As to conditions: at 10 µM.
For experiment [10], the target named is Casein kinase I isoform alpha (Homo sapiens, UniProt P48729). Kind of experiment: Selectivity interaction (KinomeScan (DiscoverX)) EUB0001049a CSNK1A1. The following applies: at 1 µM.
For experiment [11], the target named is T1, Tyrosine-protein kinase ZAP-70 (Homo sapiens) (UniProt P43403).
T1 sequence (whole entry): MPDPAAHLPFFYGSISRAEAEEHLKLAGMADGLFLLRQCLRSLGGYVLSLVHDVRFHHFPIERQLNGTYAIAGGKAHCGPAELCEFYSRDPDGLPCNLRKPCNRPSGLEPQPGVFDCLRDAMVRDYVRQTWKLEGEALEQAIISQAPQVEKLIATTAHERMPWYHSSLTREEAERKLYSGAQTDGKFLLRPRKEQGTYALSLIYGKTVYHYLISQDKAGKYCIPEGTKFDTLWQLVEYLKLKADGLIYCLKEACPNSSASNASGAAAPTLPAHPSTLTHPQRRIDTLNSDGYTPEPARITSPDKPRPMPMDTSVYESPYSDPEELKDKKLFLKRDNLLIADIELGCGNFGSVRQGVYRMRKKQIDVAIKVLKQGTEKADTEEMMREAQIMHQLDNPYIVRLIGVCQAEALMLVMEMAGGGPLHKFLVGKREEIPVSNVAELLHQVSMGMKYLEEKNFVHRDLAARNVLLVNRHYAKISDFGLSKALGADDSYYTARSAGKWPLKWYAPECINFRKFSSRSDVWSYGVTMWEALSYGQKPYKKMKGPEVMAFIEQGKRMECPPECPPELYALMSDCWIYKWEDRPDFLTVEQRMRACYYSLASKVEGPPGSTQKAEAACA
The experiment in a line: Selectivity interaction (KinomeScan (DiscoverX)) EUB0000618a ZAP70. The following applies: at 10 µM.

Experiment [12] has as its target T2, Cyclin-dependent kinase-like 5 (Homo sapiens) (UniProt O76039).
T2 sequence (whole entry): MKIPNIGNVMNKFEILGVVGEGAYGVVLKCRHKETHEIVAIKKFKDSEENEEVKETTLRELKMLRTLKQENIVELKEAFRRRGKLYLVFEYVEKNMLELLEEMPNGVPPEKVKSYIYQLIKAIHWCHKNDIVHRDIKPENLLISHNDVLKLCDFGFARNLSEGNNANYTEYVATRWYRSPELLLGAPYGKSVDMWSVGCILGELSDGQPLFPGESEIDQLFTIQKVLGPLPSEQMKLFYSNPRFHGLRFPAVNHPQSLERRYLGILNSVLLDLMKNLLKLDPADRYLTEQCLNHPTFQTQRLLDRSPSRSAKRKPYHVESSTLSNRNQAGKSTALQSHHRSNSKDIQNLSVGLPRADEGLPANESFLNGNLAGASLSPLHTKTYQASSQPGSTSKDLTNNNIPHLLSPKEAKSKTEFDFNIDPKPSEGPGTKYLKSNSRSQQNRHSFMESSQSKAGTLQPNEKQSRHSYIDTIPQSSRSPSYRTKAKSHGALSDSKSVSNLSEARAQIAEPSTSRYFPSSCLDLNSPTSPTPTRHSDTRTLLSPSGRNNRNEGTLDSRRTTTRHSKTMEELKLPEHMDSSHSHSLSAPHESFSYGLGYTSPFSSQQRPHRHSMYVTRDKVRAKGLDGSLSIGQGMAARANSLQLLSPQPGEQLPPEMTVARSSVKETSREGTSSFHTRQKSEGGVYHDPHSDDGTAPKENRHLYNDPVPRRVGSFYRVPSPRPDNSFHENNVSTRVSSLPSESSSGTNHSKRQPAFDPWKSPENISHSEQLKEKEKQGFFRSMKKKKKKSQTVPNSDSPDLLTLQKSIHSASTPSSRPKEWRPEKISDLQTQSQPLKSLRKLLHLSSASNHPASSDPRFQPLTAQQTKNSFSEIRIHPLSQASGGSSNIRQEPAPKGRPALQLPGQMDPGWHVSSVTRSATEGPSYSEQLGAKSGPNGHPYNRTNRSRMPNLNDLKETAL
The experiment in a line: Selectivity interaction (KinomeScan (DiscoverX)) EUB0000618a CDKL5. As to conditions: at 10 µM.

The target in experiment [13] is T3, Histone-lysine N-methyltransferase SETD7 (Homo sapiens) (UniProt Q8WTS6).
T3 sequence (whole entry): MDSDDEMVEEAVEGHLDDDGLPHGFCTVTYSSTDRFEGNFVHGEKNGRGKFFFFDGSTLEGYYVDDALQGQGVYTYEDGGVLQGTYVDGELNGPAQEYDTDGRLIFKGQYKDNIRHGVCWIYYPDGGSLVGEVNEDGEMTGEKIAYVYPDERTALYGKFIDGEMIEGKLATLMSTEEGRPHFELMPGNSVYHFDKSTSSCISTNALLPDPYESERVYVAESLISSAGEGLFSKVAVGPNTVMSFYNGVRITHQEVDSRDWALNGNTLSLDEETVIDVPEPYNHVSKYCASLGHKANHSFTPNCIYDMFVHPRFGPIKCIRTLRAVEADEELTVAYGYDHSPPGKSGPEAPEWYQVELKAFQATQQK
Kind of experiment: Selectivity interaction (Methyltransferase screen (radiometric assays, panel of 8 PRMTs, 21 protein lysine methyltransferases, 3 DNA methyltransferases, and one RNA methyltransferase)) EUB0000272b SETD7.

Chain of High affinity nerve growth factor receptor (P04629 33-796 limits assumed): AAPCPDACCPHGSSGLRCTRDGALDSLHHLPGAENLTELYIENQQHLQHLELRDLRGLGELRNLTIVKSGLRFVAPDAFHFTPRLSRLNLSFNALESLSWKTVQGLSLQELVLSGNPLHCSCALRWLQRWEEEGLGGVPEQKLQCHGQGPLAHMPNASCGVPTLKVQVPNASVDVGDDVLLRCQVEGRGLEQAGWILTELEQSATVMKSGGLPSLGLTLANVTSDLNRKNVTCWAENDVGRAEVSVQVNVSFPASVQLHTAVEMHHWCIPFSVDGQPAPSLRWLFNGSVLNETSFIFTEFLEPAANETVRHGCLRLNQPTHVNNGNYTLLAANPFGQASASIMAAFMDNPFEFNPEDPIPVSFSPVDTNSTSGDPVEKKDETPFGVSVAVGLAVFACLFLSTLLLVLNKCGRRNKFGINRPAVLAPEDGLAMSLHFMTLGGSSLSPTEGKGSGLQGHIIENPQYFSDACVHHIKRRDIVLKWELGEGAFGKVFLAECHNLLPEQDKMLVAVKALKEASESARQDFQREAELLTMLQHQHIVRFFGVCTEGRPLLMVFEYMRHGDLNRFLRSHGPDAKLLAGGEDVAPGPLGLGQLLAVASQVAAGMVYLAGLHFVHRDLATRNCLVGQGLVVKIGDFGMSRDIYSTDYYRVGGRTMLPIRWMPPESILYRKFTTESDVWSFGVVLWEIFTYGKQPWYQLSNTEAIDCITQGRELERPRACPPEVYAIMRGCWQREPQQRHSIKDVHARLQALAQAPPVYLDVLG
Chain of Tyrosine-protein kinase JAK1 (P23458 whole entry): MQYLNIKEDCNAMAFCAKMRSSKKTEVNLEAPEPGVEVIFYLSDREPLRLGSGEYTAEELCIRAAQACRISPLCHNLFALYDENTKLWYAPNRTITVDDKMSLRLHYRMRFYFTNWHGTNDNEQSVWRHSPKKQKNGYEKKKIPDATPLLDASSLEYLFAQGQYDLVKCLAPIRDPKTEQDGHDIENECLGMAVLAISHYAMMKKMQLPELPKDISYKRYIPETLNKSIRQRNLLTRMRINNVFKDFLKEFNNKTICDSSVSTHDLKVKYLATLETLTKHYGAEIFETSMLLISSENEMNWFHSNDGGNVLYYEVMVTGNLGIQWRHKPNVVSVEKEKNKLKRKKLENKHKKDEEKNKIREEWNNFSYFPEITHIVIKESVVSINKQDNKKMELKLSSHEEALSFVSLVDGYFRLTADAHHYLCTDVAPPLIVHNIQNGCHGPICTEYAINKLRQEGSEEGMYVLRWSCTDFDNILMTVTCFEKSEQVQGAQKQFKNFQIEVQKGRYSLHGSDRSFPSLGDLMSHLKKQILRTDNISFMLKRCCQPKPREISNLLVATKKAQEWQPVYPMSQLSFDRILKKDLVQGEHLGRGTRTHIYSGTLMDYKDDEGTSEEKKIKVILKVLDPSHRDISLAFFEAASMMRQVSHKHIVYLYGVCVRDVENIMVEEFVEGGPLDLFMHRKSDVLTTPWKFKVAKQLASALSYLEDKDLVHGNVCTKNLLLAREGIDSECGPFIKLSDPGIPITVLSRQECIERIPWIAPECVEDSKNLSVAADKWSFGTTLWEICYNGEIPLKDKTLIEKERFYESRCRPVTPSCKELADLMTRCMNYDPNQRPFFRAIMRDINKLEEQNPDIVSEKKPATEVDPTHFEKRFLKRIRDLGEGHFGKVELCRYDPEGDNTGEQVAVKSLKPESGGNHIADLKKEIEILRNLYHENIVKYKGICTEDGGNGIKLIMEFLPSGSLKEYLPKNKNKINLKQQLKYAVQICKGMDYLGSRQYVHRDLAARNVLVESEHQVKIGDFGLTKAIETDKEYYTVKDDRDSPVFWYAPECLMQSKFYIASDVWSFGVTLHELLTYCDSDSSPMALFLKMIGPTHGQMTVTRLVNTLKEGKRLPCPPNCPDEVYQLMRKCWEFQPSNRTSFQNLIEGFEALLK
Chain of Serine/threonine-protein kinase 38 (Homo sapiens) (Q15208 2-465 limits assumed): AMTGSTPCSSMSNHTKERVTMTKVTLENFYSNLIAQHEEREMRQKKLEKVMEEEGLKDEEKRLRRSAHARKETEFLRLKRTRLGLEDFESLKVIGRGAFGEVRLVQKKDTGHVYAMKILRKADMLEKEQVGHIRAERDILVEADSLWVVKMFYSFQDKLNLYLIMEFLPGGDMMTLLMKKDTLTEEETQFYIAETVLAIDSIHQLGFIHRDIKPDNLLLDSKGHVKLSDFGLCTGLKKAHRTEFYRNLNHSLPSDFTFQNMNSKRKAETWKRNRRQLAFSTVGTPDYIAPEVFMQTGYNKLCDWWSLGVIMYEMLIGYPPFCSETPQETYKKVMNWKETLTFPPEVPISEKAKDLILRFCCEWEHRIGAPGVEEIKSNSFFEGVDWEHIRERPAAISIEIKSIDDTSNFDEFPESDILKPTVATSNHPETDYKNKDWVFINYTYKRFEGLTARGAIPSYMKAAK
Chain of Interleukin-1 receptor-associated kinase 1 (Homo sapiens) (P51617 whole entry, looked up): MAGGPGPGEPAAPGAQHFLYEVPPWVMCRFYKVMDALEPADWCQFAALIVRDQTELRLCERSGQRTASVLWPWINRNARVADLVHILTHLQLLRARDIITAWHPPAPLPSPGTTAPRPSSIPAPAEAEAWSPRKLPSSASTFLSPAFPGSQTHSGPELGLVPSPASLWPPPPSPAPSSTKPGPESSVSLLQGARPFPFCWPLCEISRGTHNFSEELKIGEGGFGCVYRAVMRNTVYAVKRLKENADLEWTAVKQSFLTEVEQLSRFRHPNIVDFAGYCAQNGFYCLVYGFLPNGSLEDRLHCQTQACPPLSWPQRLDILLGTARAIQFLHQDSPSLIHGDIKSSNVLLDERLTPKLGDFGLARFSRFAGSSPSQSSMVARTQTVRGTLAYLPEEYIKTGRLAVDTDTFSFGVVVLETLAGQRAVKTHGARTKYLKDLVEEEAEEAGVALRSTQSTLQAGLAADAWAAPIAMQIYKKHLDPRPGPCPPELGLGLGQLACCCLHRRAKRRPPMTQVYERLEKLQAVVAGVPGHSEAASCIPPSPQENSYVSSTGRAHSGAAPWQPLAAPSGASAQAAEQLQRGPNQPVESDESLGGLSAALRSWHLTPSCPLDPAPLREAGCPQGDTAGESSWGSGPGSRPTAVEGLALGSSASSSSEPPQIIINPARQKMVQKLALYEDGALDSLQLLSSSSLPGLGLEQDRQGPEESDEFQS
Chain of Tyrosine-protein kinase JAK2 (O60674 whole entry): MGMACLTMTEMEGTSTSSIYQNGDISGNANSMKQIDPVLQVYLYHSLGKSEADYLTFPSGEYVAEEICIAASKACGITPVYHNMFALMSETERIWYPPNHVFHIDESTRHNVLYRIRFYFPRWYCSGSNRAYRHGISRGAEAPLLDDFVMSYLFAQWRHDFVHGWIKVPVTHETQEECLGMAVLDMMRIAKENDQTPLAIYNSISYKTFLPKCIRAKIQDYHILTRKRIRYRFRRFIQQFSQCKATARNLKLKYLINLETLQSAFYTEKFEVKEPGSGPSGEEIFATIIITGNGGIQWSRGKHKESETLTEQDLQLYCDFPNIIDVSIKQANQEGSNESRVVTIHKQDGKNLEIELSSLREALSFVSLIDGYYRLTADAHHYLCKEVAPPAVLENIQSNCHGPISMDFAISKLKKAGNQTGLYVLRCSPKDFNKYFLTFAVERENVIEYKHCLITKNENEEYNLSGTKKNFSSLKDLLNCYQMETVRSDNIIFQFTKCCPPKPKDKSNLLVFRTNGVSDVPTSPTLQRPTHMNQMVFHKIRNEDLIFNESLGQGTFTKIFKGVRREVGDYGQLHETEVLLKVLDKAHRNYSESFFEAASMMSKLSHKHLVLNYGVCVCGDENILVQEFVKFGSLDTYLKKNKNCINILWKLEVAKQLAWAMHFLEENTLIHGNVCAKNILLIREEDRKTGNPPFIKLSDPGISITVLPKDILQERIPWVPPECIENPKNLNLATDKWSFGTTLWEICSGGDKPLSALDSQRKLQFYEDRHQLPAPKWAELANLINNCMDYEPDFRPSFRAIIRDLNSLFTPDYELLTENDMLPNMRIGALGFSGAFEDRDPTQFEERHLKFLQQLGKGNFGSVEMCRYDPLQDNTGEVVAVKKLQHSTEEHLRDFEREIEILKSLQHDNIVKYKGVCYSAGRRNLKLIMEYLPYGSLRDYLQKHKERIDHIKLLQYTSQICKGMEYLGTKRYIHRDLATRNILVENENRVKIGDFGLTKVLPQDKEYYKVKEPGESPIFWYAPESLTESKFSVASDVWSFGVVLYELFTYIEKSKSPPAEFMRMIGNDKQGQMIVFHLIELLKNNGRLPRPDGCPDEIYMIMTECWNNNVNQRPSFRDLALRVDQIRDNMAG
Chain of Mitogen-activated protein kinase 10 (P53779 whole entry): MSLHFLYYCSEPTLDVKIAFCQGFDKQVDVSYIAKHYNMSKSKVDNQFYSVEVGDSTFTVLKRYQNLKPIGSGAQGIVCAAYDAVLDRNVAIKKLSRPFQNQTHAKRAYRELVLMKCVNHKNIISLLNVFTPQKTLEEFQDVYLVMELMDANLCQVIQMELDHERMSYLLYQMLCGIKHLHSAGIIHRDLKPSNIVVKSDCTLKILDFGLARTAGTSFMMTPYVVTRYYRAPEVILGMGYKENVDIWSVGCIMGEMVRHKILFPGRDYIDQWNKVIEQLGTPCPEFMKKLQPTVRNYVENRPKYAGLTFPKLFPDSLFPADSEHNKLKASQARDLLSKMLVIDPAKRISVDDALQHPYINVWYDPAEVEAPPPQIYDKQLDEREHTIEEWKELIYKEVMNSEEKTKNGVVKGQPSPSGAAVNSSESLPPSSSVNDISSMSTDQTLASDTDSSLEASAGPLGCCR
Chain of Casein kinase I isoform alpha (P48729 2-337 limits assumed): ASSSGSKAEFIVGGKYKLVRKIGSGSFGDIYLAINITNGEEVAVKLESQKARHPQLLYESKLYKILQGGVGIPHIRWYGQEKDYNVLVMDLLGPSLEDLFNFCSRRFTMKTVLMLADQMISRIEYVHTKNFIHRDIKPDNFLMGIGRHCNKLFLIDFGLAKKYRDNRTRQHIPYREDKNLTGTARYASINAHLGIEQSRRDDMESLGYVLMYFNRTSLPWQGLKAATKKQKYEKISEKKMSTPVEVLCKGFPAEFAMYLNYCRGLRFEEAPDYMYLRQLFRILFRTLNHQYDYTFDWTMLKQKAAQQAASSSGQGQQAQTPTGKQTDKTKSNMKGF

Consider `Cn1cc(-n2cnc3c(NCc4nc5cc(Cl)c(Cl)cc5[nH]4)nc(N4CCOCC4)nc32)cn1`, for which the % of inhibition in experiment [1] was -159%. Consider `CN(C)C/C=C/C(=O)Nc1ccc(C(=O)N2CCCC(Nc3ncc(Cl)c(-c4c[nH]c5ccccc45)n3)C2)cc1` (centres undefined), for which the % of control in [2] was found to be 78%. For `O=C(NOC[C@H](O)CO)c1ccc(F)c(F)c1Nc1ccc(I)cc1F`, the % of control in [3] came to 100%. As to `CC(C)(O)[C@H](F)CN1Cc2cc(NC(=O)c3cnn4cccnc34)c(N3CCOCC3)cc2C1=O`, in experiment [4], the % of inhibition is 80.5%. As for `CN(C)CCOc1ccc(-c2nc(-c3ccncc3)c(-c3ccc4c(c3)CC/C4=N\O)[nH]2)cc1`, in experiment [5], the % of control amounted to 90%. `CC[C@@H]1[C@H](F)C(=O)N[C@@H]1COc1nccc2cc(C(N)=O)c(OC)cc12` [ZIMLOVISERTIB]: the figures for the % of inhibition in experiment [6], in experiment [7] and in experiment [8] were 6.65%, -0.407% and -1.2%, respectively. `CCN(CC)CCCCNc1ncc2cc(-c3cc(OC)cc(OC)c3)c(NC(=O)NC(C)(C)C)nc2n1`: in [9], the % of control was 100%.

The molecule `COc1cc(Nc2nc(C)cc(-c3cnn4nc(OC)ccc34)n2)cc(C(F)(F)F)c1` gave a % of control in experiment [10] of 77%. Turning to `O[C@H]1CC[C@H](Nc2ncc3nc(Nc4c(F)cc(F)cc4F)n([C@H]4CCOC4)c3n2)CC1`, the % of control in experiment [11] and in experiment [12] was 100% in each case. For the molecule `Cc1cc(C)cc([C@H]2c3cc(C)ccc3NC(=O)CN2C(=O)c2ccc(Br)s2)c1`, the % of activity was determined as 101% in [13] (at 1 µM) and 99% in experiment [13] (at 10 µM).
